Assay results taken from US20190358238A1, “ALLOSTERIC ANTAGONISTS OF GPRC6a AND THEIR USE IN MITIGATING PROTEINOPATHIES” (UNIVERSITY OF SOUTH FLORIDA, priority 2016, published 2019).
Entries after “also recorded” stand apart in the source; their conditions may differ.

How the values were obtained:
C3H/htau cells = assay: tau expression in C3H/htau cells treated 72 hours, samples run on a gel; format: cell-based; settings: for monomeric and high molecular weight (HMW) tau multimers: 72 hours
Procedure: (§1) FIG. 3A, FIG. 3B, FIG. 3C, FIG. 3D. C3H/htau cells treated with siRNA to GPRC6A show decreased tau expression compared to scrambled siRNA (FIG. 3A). GPRC6a allosteric antagonist Cpd#3 (Drug 47661) (0-250 tLM) decreases monomeric and high molecular weight (HMW) tau multimers (FIG. 3B) in C3H/htau cells. FIG. 3C-FIG. 3D show decreased tau in primary neurons after (Drug 47661) decreases tau at 10-100 nM. All treatments=72 hours (n=3 independent exp.).
FIG. 6. C3H/htau cells treated with GPRC6A antagonist show decreased tau expression compared to vehicle (dotted line and first lane in each well). All GPRC6a allosteric antagonists Drug 47661 (red), PF020 (blue), PF037 (black) (0-100 μM) decreased monomeric and high molecular weight (HMW) tau multimers in C3H/htau cells at different concentrations. All treatments=72 hours (n=3 independent exp.).
rTg4510 tau mice comprise of the tau P301L mutation which expresses in the forebrain and hippocampus (K. Santacruz, et al. Science 2005, 309, 476). […] Accumulation of ptau occurs largely between 3 and 9 mo of age. Additionally, high-molecular weight tau multimers/oligomers and nitrated tau also accumulate in rTg4510 tau transgenic mice compared to non-transgenic littermates (J. B. Hunt, Jr., et al. J. Neurosci. 2015, 35, 14842). […] In stably tau overexpressing HeLa cells (C3H/htau), siRNA to GPRC6a reduced receptor expression coupled with a reduction in tau […]. We will repress GPRC6a expression in the CNS with rAAV-shRNA-GPRC6a to reduce receptor signaling.
(§2) Some of the compounds have 9-fold more selectivity for GPRC6a than our current compound in a FRET-based assay (H. Johansson, et al. J. Med. Chem. 2015, 58, 8938), and an excess of 50 derivatives to these current lead compounds will be analyzed. A tetracycline inducible “on” tau fusion-Dendra2 stable cell line will be used, which is a green-to-red irreversible photoswitchable fluorescent protein activated by UV-violet/blue light. We will induce tau expression with tetracycline (1 μg/mL) for 24 h, then photo convert tau dendra2-green with blue light (488 nm) for 10 minutes to tau-dendra2-red for monitoring kinetics of tau. […] We will treat cells with GPRC6a allosteric antagonists for 72 hours with continual red fluorescent output readings every 6 hours (553 nm ex and 573 nm em). This assay will measure tau degradation kinetics over time (time 0 point at which photo switch occurs from tau-green to tau-red) (FIG. 5). Agents that govern tau biology will alter the rate of tau degradation (tau-red). Newly synthesize tau (tau-green) will fluoresce green to be measure on a separated channel. We will also co-label cells with DAPI nuclear stain to account for cell loss and nuclear chromatin changes. We will use Biotek®@ Cytation™ 3 Cell Imaging Multi-Mode Reader located at Byrd Institute. We will use a 96 well semi-high throughput platform with GPRC6a antagonist concentrations ranging from (10 nM-100 μM). We will also perform cell toxicity assays (Cyto Tox-ONE LDH Membrane Integrity Assay, Promega). We will perform western blot analysis in C3H/htau cells from GPRC6a antagonists that reduce tau levels more than 30% at 3 μM or below and with no more than 5-10% toxicity. We will measure autophagy related makers to determine the mechanism for tau reduction.
C3H/htau cells were treated for 72 hours with varying concentrations of GPRC6A antagonist Drug 47661, PF020, or PF037. Samples were run on a gel. […]

primary neurons = assay: tau in primary neurons after 72 hours treatment; format: cell-based; settings: 10-100 nM, endogenous tau, nanomolar efficacy
Procedure: as §1
Some of the compounds have 9-fold more selectivity for GPRC6a than our current compound in a FRET-based assay (H. Johansson, et al. J. Med. Chem. 2015, 58, 8938), and an excess of 50 derivatives to these current lead compounds will be analyzed. A tetracycline inducible “on” tau fusion-Dendra2 stable cell line will be used, which is a green-to-red irreversible photoswitchable fluorescent protein activated by UV-violet/blue light. We will induce tau expression with tetracycline (1 μg/mL) for 24 h, then photo convert tau dendra2-green with blue light (488 nm) for 10 minutes to tau-dendra2-red for monitoring kinetics of tau. […] We will treat cells with GPRC6a allosteric antagonists for 72 hours with continual red fluorescent output readings every 6 hours (553 nm ex and 573 nm em). […] We will use Biotek®@ Cytation™ 3 Cell Imaging Multi-Mode Reader located at Byrd Institute. […]

[1] = test system: PS 19 tau (P301S) transgenic mice; assay: acute bolus injection into PS19 tau (P301S) transgenic mice, western blot after 72 hours; format: in vivo, mouse
Procedure: FIG. 4. GPRC6a allosteric antagonist impacts tau levels and modifies autophagy markers in PS 19 tau transgenic mice. PSI9 (P301S) mice (bottom left of panel) show tau AT8 accumulation received an acute bolus injection of vehicle on one hemisphere and the antagonist (Drug 47661, 78 ng) on the opposite hemisphere for 72 hours.
as §2

[2] = half-life of Drug 47661 in naive mice after IV injection; format: in vivo, mouse
Procedure: FIG. 9. Graphs show relative half-life of Drug 47661. Naïve mice were injected with 5 mg/kg of Drug 47661 IV. Serial submandibular bleeds were taken 15 min and 60 min post IV injection. […] (N=3).
The half-life of GPRC6A antagonist Drug 47661 was examined. Naïve mice were injected with 5 mg/kg of Drug 47661 by IV. Serial submandibular bleeds were taken 15 min and 60 min post IV injection. […] (N=3). Shown in FIG. 9 is a graph showing the relative half-life of Drug 47661.

BE(2) M17 cells = assay: alpha synuclein expression in BE(2) M17 cells stably transfected with wild-type alpha synuclein; format: cell-based; settings: 72 hours, relative to GAPDH
Procedure: FIG. 10. Shown are BE(2) M17 cells stably transfected with wild-type alpha synuclein (16 kDa) treated with GPRC6a antagonist drug 47661 for 72 hours. […] Statistical analysis was performed using One-way Anova with Fisher's LSD multiple comparison test as post hoc. (n=3 independent experiments).
BE(2) M17 cells were stably transfected with wild-type alpha synuclein (16 kDa) and treated with GPRC6a antagonist drug 47661 for 72 hours. Samples were run on a gel. […] Statistical analysis was performed using One-way Anova with Fisher's LSD multiple comparison test as post hoc.

[3] = 78 ng bolus injection, western blot

Row | Structure (SMILES) | monomeric and high molecular weight (HMW) tau multimers (C3H/htau cells; 0-100 μM, vs vehicle, FIG. 6) | monomeric and high molecular weight (HMW) tau multimers (C3H/htau cells; 0-250 tLM, FIG. 3B) | clearance among monomeric, insoluble, and oligomeric tau (C3H/htau cells; micromolar efficacy) | tau in primary neurons (primary neurons) | beclin 1 [1, 3] | mTOR [1, 3] | p62 [1, 3] | tau expression (total tau) ([1]; 78 ng one-time bolus injection, entorhinal cortex, vs vehicle hemisphere) | clearance rate ([2]; 5 mg/kg IV (FIG. 9 legend)) [Lh/kg] | half-life ([2]; mouse, blood, 5 mg/kg IV) [min] | clearance ([2]; mouse, blood, 5 mg/kg IV, read-out: clearance rate (converted)) [L/h/kg] | Vd ([2]; mouse, blood, 5 mg/kg IV, read-out: volume of distribution) [L/kg] | monomeric (16 kDa) and oligomeric (>75 kDa) alpha synuclein expression (BE(2) M17 cells)
1 | CN(CC(=O)c1c(-c2ccccc2)[nH]c2ccccc12)CC(=O)N1CCOCC1 [Drug 47661, 2-(methyl(2-morpholino-2-oxoethyl)amino)-1-(2-phenyl-1H-indol-3-yl)ethan-1-one] | decreased | decreases | significant clearance | reduced; also recorded: decreased tau | increased | decreased | decreased | modestly reduced | 4.5 | 9.6 | 4.5 | 1.07 | decreased
2 | O=C(CN1CCCC(C(=O)N2CCOCC2)C1)c1c(-c2ccccc2)[nH]c2ccccc12 (stereo not drawn) [PF020, 2-(3-(morpholine-4-carbonyl)piperidin-1-yl)-1-(2-phenyl-1H-indol-3-yl)ethan-1-one] | decreased |  |  |  |  |  |  |  |  |  |  |  | 
3 | CN(CCN1CCOCC1)CC(=O)c1c(-c2ccccc2)[nH]c2ccccc12 [PF037] | decreased |  |  |  |  |  |  |  |  |  |  |  | 
